Experiments:
[1] = test system: EKVX; experiment: NCI-60 antiproliferative screen (SRB); type: cell-based, human; settings: Homo sapiens; 10 µM single dose, 48 h; EKVX (NSCLC); read-out: Growth inhibition (%)
[2] = test system: LOX IMVI; experiment: NCI-60 antiproliferative screen (SRB); type: cell-based, human; settings: Homo sapiens; 10 µM single dose, 48 h; LOX IMVI (Melanoma); read-out: Growth inhibition (%)
[3] = test system: NCI-H226; experiment: NCI-60 antiproliferative screen (SRB); type: cell-based, human; settings: Homo sapiens; 10 µM single dose, 48 h; NCI-H226 (NSCLC); read-out: Growth inhibition (%)
[4] = test system: UACC-257; experiment: NCI-60 antiproliferative screen (SRB); type: cell-based, human; settings: Homo sapiens; 10 µM single dose, 48 h; UACC-257 (Melanoma); read-out: Growth inhibition (%)
[5] = test system: IGROV1; experiment: NCI-60 antiproliferative screen (SRB); type: cell-based, human; settings: Homo sapiens, IGROV-1; 10 µM single dose, 48 h; IGROV1 (Ovarian); read-out: Growth inhibition (%)
[6] = test system: CAKI-1; experiment: NCI-60 antiproliferative screen (SRB); type: cell-based, human; settings: Homo sapiens; 10 µM single dose, 48 h; CAKI-1 (Renal); read-out: Growth inhibition (%)
[7] = test system: NCI-H522; experiment: NCI-60 antiproliferative screen (SRB); type: cell-based, human; settings: Homo sapiens; 10 µM single dose, 48 h; NCI-H522 (NSCLC); read-out: Growth inhibition (%)
[8] = test system: OVCAR-8; experiment: NCI-60 antiproliferative screen (SRB); type: cell-based, human; settings: Homo sapiens; 10 µM single dose, 48 h; OVCAR-8 (Ovarian); read-out: Growth inhibition (%)
[9] = test system: SN12C; experiment: NCI-60 antiproliferative screen (SRB); type: cell-based, human; settings: Homo sapiens; 10 µM single dose, 48 h; SN12C (Renal); read-out: Growth inhibition (%)
[10] = test system: SF-539; experiment: NCI-60 antiproliferative screen (SRB); type: cell-based, human; settings: Homo sapiens; 10 µM single dose, 48 h; SF-539 (CNS); read-out: Growth inhibition (%)
[11] = test system: M14; experiment: NCI-60 antiproliferative screen (SRB); type: cell-based, human; settings: Homo sapiens; 10 µM single dose, 48 h; M14 (Melanoma); read-out: Growth inhibition (%)
[12] = test system: OVCAR-5; experiment: NCI-60 antiproliferative screen (SRB); type: cell-based, human; settings: Homo sapiens; 10 µM single dose, 48 h; OVCAR-5 (Ovarian); read-out: Growth inhibition (%)
[13] = test system: NCI-H460; experiment: NCI-60 antiproliferative screen (SRB); type: cell-based, human; settings: Homo sapiens; 10 µM single dose, 48 h; NCI-H460 (NSCLC); read-out: Growth inhibition (%)
[14] = test system: SF-295; experiment: NCI-60 antiproliferative screen (SRB); type: cell-based, human; settings: Homo sapiens; 10 µM single dose, 48 h; SF-295 (CNS); read-out: Growth inhibition (%)
[15] = test system: ACHN; experiment: NCI-60 antiproliferative screen (SRB); type: cell-based, human; settings: Homo sapiens; 10 µM single dose, 48 h; ACHN (Renal); read-out: Growth inhibition (%)
[16] = test system: HS 578T; experiment: NCI-60 antiproliferative screen (SRB); type: cell-based, human; settings: Homo sapiens; 10 µM single dose, 48 h; HS 578T (Breast); read-out: Growth inhibition (%)
[17] = test system: DU-145; experiment: NCI-60 antiproliferative screen (SRB); type: cell-based, human; settings: Homo sapiens; 10 µM single dose, 48 h; DU-145 (Prostate); read-out: Growth inhibition (%)
[18] = test system: OVCAR-4; experiment: NCI-60 antiproliferative screen (SRB); settings: Homo sapiens, OVCAR-4, 48 h, read-out: Growth inhibition (%)
Experimental: Anticancer activity was tested against 60 cancer cell lines (NCI-60) after 48h treatments with a single dosage of 10 μM of compounds by using sulforhodamine B assay [39] on the traditional 96-well platform. […] The human cancer cell lines of the NCI-60 panel are grown in RPMI 1640 medium supplemented with 5% FBS (fetal bovine serum) and 2 mM L-glutamine. […] For further analysis of promising compounds, five dose screens were performed against the NCI-60 panel. Drug treatments are performed in 5 doses using 10-fold or ½ log dose dilutions.

[19] = test system: HCT-15; experiment: NCI-60 antiproliferative screen (SRB); type: cell-based, human; settings: Homo sapiens; 10 µM single dose, 48 h; HCT-15 (Colon); read-out: Growth inhibition (%)
[20] = test system: UACC-62; experiment: NCI-60 antiproliferative screen (SRB); type: cell-based, human; settings: Homo sapiens; 10 µM single dose, 48 h; UACC-62 (Melanoma); read-out: Growth inhibition (%)
[21] = test system: BT-549; experiment: NCI-60 antiproliferative screen (SRB); type: cell-based, human; settings: Homo sapiens; 10 µM single dose, 48 h; BT-549 (Breast); read-out: Growth inhibition (%)
[22] = test system: SK-MEL-28; experiment: NCI-60 antiproliferative screen (SRB); type: cell-based, human; settings: Homo sapiens; 10 µM single dose, 48 h; SK-MEL-28 (Melanoma); read-out: Growth inhibition (%)
[23] = test system: NCI/ADR-RES; experiment: NCI-60 antiproliferative screen (SRB); type: cell-based, human; settings: Homo sapiens; 10 µM single dose, 48 h; NCI/ADR-RES (Ovarian); read-out: Growth inhibition (%)
[24] = test system: MDA-MB-435; experiment: NCI-60 antiproliferative screen (SRB); type: cell-based, human; settings: Homo sapiens; 10 µM single dose, 48 h; MDA-MB-435 (Melanoma); read-out: Growth inhibition (%)
[25] = test system: NCI-H23; experiment: NCI-60 antiproliferative screen (SRB); type: cell-based, human; settings: Homo sapiens; 10 µM single dose, 48 h; NCI-H23 (NSCLC); read-out: Growth inhibition (%)
[26] = test system: 786-0; experiment: NCI-60 antiproliferative screen (SRB); type: cell-based, human; settings: Homo sapiens; 10 µM single dose, 48 h; 786-0 (Renal); read-out: Growth inhibition (%)
[27] = test system: NCI-60 human cancer cell lines; experiment: NCI-60 screen, full panel summary; type: cell-based; settings: 10 µM single dose; for Mean Growth Percent: all NCI-60 cell lines
Experimental: In a comprehensive test, compounds were assayed at a single dose concentration (10^−5 M) in the full panel of NCI-60 cancer cell lines.

[28] = test system: CCRF-CEM; experiment: NCI-60 antiproliferative screen (SRB); type: cell-based, human; settings: Homo sapiens; 10 µM single dose, 48 h; CCRF-CEM (Leukemia); read-out: Growth inhibition (%)
[29] = test system: SK-OV-3; experiment: NCI-60 antiproliferative screen (SRB); type: cell-based, human; settings: Homo sapiens; 10 µM single dose, 48 h; SK-OV-3 (Ovarian); read-out: Growth inhibition (%)

SMILES	inhibition at 10 µM [1]	inhibition at 10 µM [2]	inhibition at 10 µM [3]	inhibition at 10 µM [4]	inhibition at 10 µM [5]	inhibition at 10 µM [6]	inhibition at 10 µM [7]	inhibition at 10 µM [8]	inhibition at 10 µM [9]	inhibition at 10 µM [10]	inhibition at 10 µM [11]	inhibition at 10 µM [12]	inhibition at 10 µM [13]	inhibition at 10 µM [14]	inhibition at 10 µM [15]	inhibition at 10 µM [16]	inhibition at 10 µM [17]	inhibition at 10 µM [18]	inhibition at 10 µM [19]	inhibition at 10 µM [20]	also measured
O=C1Nc2cc(Cl)ccc2C1=Cc1ccc(OCc2ccccc2)cc1 (mixture of isomers) [Compound 5d, (E/Z)-3-[4-(Benzyloxy)benzylidene]-6-chloroindolin-2-one]	-0.31%	7.32%	7.13%	-16.1%	8.41%	10.7%	0.19%	-0.41%	4.03%	5.48%	3.83%	-0.55%	-4.48%	-14.7%	5.18%	3.27%	-1.25%	3.65%	5%	4.09%	inhibition at 10 µM [21]: -1.23%; inhibition at 10 µM [22]: -2.97%; inhibition at 10 µM [23]: -4.24%; inhibition at 10 µM [24]: 0.59%; inhibition at 10 µM [25]: 5.71%; inhibition at 10 µM [26]: -4.97%; Positive Cytostatic Effect (cell lines with percent growth from 0 to 50 / total number of cell lines) [27]: 0/59; Positive Cytotoxic Effect (cell lines with percent growth of <0 / total number of cell lines) [27]: 0/59; Sensitive/Total Cell Lines [27]: 0/59; antiproliferative activity (in words) [27]: weak antiproliferative activity; Mean Growth Percent [27]: 0.13; inhibition at 10 µM ([27]; Homo sapiens, read-out: Range of Growth Inhibition on All Cells): -54 to 38.4%; inhibition at 10 µM [28]: -2.18%; inhibition at 10 µM [29]: -3.01%
O=C1Nc2ccc(F)cc2C1=Cc1ccc(OCc2ccccn2)cc1 (mixture of isomers) [Compound 5f, (E/Z)-5-fluoro-3-[4-(pyridin-2-ylmethoxy)benzylidene]indolin-2-one]	15.8%	12.6%	6.67%	-4.06%	6.35%	33.5%	68.1%	3.52%	4.04%	47.7%	-5.09%	-9.45%	11.6%	1.98%	23.8%	21.9%	7.73%	5.38%	10.7%	9.94%	inhibition at 10 µM [21]: 13.2%; inhibition at 10 µM [22]: -8.53%; inhibition at 10 µM [23]: 21.7%; inhibition at 10 µM [24]: -2.77%; inhibition at 10 µM [25]: 28%; inhibition at 10 µM [26]: 16.6%; Positive Cytostatic Effect (cell lines with percent growth from 0 to 50 / total number of cell lines) [27]: 3/59; Positive Cytotoxic Effect (cell lines with percent growth of <0 / total number of cell lines) [27]: 0/59; Sensitive/Total Cell Lines [27]: 3/59; The Most Sensitive Cell Line [27]: NCI-H522; Mean Growth Percent [27]: 13.74; inhibition at 10 µM [28]: 5.79%; inhibition at 10 µM [29]: 3.75%
O=C1Nc2ccc(Cl)cc2C1=Cc1ccc(OCc2ccccn2)cc1 (mixture of isomers) [Compound 5g, (E/Z)-5-Chloro-3-[4-(pyridin-2-ylmethoxy)benzylidene] indolin-2-one]	34.3%	43.5%	98.7%	-18.2%	45.4%	38.4%	34%	54.1%	55.5%	26.5%	10.1%	11.8%	84%	15.5%	43%	85.2%	12.2%	102%	64.3%	33.3%	inhibition at 10 µM [21]: 21.2%; inhibition at 10 µM [22]: -0.48%; inhibition at 10 µM [23]: 85.9%; inhibition at 10 µM [24]: 23.1%; inhibition at 10 µM [25]: 37.8%; inhibition at 10 µM [26]: 74.3%; Positive Cytostatic Effect (cell lines with percent growth from 0 to 50 / total number of cell lines) [27]: 17/59; Positive Cytotoxic Effect (cell lines with percent growth of <0 / total number of cell lines) [27]: 1/59; Sensitive/Total Cell Lines [27]: 18/59; The Most Sensitive Cell Line [27]: OVCAR-4; number of cell lines with cytostatic effects [27]: 17; number of cell lines with cytotoxic effects [27]: 1; Mean Growth Percent [27]: 38.63; inhibition at 10 µM [28]: 16.8%; inhibition at 10 µM [29]: 10.8%
